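The compound was tested at five concentrations on cells cultured in 96-well plates, with a 48-hour exposure period. GI50: concentration for 50% inhibition of growth. TGI: total growth inhibition.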
Assays:
Test in all cases: inhibition of tumour cell growth, NCI panel, 48 h
IGROV1 ovarian = tested on: IGROV1 ovarian
CAKI-1 renal = tested on: CAKI-1 renal
SF-268 CNS = tested on: SF-268 CNS
HOP-62 NSCLC = tested on: HOP-62 NSCLC
BT-549 breast = tested on: BT-549 breast
EKVX NSCLC = tested on: EKVX NSCLC
SK-MEL-2 melanoma = tested on: SK-MEL-2 melanoma
SF-539 CNS = tested on: SF-539 CNS
OVCAR-3 ovarian = tested on: OVCAR-3 ovarian
OVCAR-5 ovarian = tested on: OVCAR-5 ovarian
786-0 renal = tested on: 786-0 renal
KM12 colon = tested on: KM12 colon
COLO 205 colon = tested on: COLO 205 colon
HOP-92 NSCLC = tested on: HOP-92 NSCLC
T-47D breast = tested on: T-47D breast
SK-MEL-5 melanoma = tested on: SK-MEL-5 melanoma
LOX IMVI melanoma = tested on: LOX IMVI melanoma
PC-3 prostate = tested on: PC-3 prostate
MCF7 breast = tested on: MCF7 breast
SK-OV-3 ovarian = tested on: SK-OV-3 ovarian
HCT-116 colon = tested on: HCT-116 colon
HCT-15 colon = tested on: HCT-15 colon
UACC-62 melanoma = tested on: UACC-62 melanoma
OVCAR-8 ovarian = tested on: OVCAR-8 ovarian
NCI-H522 lung = tested on: NCI-H522 lung
A549 NSCLC = tested on: A549 NSCLC
M14 melanoma = tested on: M14 melanoma
NCI/ADR-RES ovarian = tested on: NCI/ADR-RES ovarian
HL-60(TB) leukemia = tested on: HL-60(TB) leukemia
RPMI-8226 leukemia = tested on: RPMI-8226 leukemia
MDA-MB-231 breast = tested on: MDA-MB-231 breast
SNB-19 CNS = tested on: SNB-19 CNS
DU-145 prostate = tested on: DU-145 prostate
TK-10 renal = tested on: TK-10 renal
MDA-MB-435 = tested on: MDA-MB-435
SN12C renal = tested on: SN12C renal
UO-31 renal = tested on: UO-31 renal
ACHN renal = tested on: ACHN renal
NCI-H23 lung = tested on: NCI-H23 lung
HS 578T breast = tested on: HS 578T breast
NCI-H460 lung = tested on: NCI-H460 lung
K-562 leukemia = tested on: K-562 leukemia
SF-295 CNS = tested on: SF-295 CNS
SW-620 colon = tested on: SW-620 colon
UACC-257 melanoma = tested on: UACC-257 melanoma
SR leukemia = tested on: SR leukemia
U251 CNS = tested on: U251 CNS
SNB-75 CNS = tested on: SNB-75 CNS
HCC-2998 colon = tested on: HCC-2998 colon
MALME-3M melanoma = tested on: MALME-3M melanoma
CCRF-CEM leukemia = tested on: CCRF-CEM leukemia
SK-MEL-28 melanoma = tested on: SK-MEL-28 melanoma
NCI-H226 lung = tested on: NCI-H226 lung
MOLT-4 leukemia = tested on: MOLT-4 leukemia
HT29 colon = tested on: HT29 colon
OVCAR-4 ovarian = tested on: OVCAR-4 ovarian
A498 renal = tested on: A498 renal
RXF 393 renal = tested on: RXF 393 renal

## N#CC1=C(N)NC(=S)NC1c1ccc(-c2ccc(-c3nc4ccccc4s3)cc2)o1 (stereo not drawn)
IGROV1 ovarian
  GI50: 32.1 µM
  TGI: > 50 µM
CAKI-1 renal
  GI50: 35.3 µM
  TGI: > 50 µM
SF-268 CNS
  GI50: 28.9 µM
  TGI: > 50 µM
HOP-62 NSCLC
  GI50: > 50 µM
  TGI: > 50 µM
BT-549 breast
  GI50: 21.7 µM
  TGI: > 50 µM
EKVX NSCLC
  GI50: > 50 µM
  TGI: > 50 µM
SK-MEL-2 melanoma
  GI50: 41 µM
  TGI: > 50 µM
SF-539 CNS
  GI50: 15.2 µM
  TGI: 31.7 µM
OVCAR-3 ovarian
  GI50: > 50 µM
  TGI: > 50 µM
OVCAR-5 ovarian
  GI50: > 50 µM
  TGI: > 50 µM
786-0 renal
  GI50: > 50 µM
  TGI: > 50 µM
KM12 colon
  GI50: 17 µM
  TGI: > 50 µM
COLO 205 colon
  GI50: 17.4 µM
  TGI: > 50 µM
HOP-92 NSCLC
  GI50: > 50 µM
  TGI: > 50 µM
T-47D breast
  GI50: 43.2 µM
  TGI: > 50 µM
SK-MEL-5 melanoma
  GI50: 14.6 µM
  TGI: 39.4 µM
LOX IMVI melanoma
  GI50: 10.6 µM
  TGI: 22.8 µM
PC-3 prostate
  GI50: 31.2 µM
  TGI: > 50 µM
MCF7 breast
  GI50: 9.71 µM
  TGI: > 50 µM
SK-OV-3 ovarian
  GI50: > 50 µM
  TGI: > 50 µM
HCT-116 colon
  GI50: 13 µM
  TGI: 31.8 µM
HCT-15 colon
  GI50: 17.5 µM
  TGI: > 50 µM
UACC-62 melanoma
  GI50: 16.1 µM
  TGI: > 50 µM
OVCAR-8 ovarian
  GI50: 35.1 µM
  TGI: > 50 µM
NCI-H522 lung
  GI50: 40.3 µM
  TGI: > 50 µM
A549 NSCLC
  GI50: 31.6 µM
  TGI: > 50 µM
M14 melanoma
  GI50: 20.8 µM
  TGI: > 50 µM
NCI/ADR-RES ovarian
  GI50: > 50 µM
  TGI: > 50 µM
HL-60(TB) leukemia
  GI50: 30.7 µM
  TGI: > 50 µM
RPMI-8226 leukemia
  GI50: 32.8 µM
  TGI: > 50 µM
MDA-MB-231 breast
  GI50: 16.3 µM
  TGI: > 50 µM
SNB-19 CNS
  GI50: > 50 µM
  TGI: > 50 µM
DU-145 prostate
  GI50: 42.3 µM
  TGI: > 50 µM
TK-10 renal
  GI50: 37.9 µM
  TGI: > 50 µM
MDA-MB-435
  GI50: 39.1 µM
  TGI: > 50 µM
SN12C renal
  GI50: > 50 µM
  TGI: > 50 µM
UO-31 renal
  GI50: > 50 µM
  TGI: > 50 µM
ACHN renal
  GI50: 28.1 µM
  TGI: > 50 µM
NCI-H23 lung
  GI50: 33.2 µM
  TGI: > 50 µM
HS 578T breast
  GI50: > 50 µM
  TGI: > 50 µM
NCI-H460 lung
  GI50: 10.4 µM
  TGI: 25.2 µM
K-562 leukemia
  GI50: 9.98 µM
  TGI: 22 µM
SF-295 CNS
  GI50: 26.9 µM
  TGI: > 50 µM
SW-620 colon
  GI50: 37.5 µM
  TGI: > 50 µM
UACC-257 melanoma
  GI50: 36.9 µM
  TGI: > 50 µM
SR leukemia
  GI50: 11.3 µM
  TGI: 25.7 µM
U251 CNS
  GI50: 11.8 µM
  TGI: 32.2 µM

## Cc1cc(C)c2nc(Nc3nc(C)c(C)c(=O)[nH]3)nc(C)c2c1
IGROV1 ovarian
  GI50: 2.85 µM
  TGI: 12.8 µM
SF-268 CNS
  GI50: 2.82 µM
  TGI: 13.8 µM
HOP-62 NSCLC
  GI50: 1.96 µM
  TGI: 8.82 µM
BT-549 breast
  GI50: 2.01 µM
  TGI: 8.48 µM
EKVX NSCLC
  GI50: 2.58 µM
  TGI: 10.9 µM
SNB-75 CNS
  GI50: 2.9 µM
  TGI: 13.6 µM
HCC-2998 colon
  GI50: 3.81 µM
  TGI: 19.6 µM
SK-MEL-2 melanoma
  GI50: 2.27 µM
  TGI: 7.09 µM
MALME-3M melanoma
  GI50: 1.61 µM
  TGI: 7.48 µM
SF-539 CNS
  GI50: 2.54 µM
  TGI: 10.3 µM
CCRF-CEM leukemia
  GI50: 2.72 µM
  TGI: 8.61 µM
SK-MEL-28 melanoma
  GI50: 2.35 µM
  TGI: 7.64 µM
OVCAR-3 ovarian
  GI50: 3.59 µM
  TGI: 13.1 µM
OVCAR-5 ovarian
  GI50: 3.01 µM
  TGI: 18.5 µM
786-0 renal
  GI50: 2.4 µM
  TGI: 12.3 µM
KM12 colon
  GI50: 3.02 µM
  TGI: 23.9 µM
NCI-H226 lung
  GI50: 2.93 µM
  TGI: 15.4 µM
COLO 205 colon
  GI50: 2.51 µM
  TGI: 7.51 µM
HOP-92 NSCLC
  GI50: 2.48 µM
  TGI: 9.11 µM
MOLT-4 leukemia
  GI50: 2.35 µM
  TGI: 9.37 µM
T-47D breast
  GI50: 1.65 µM
  TGI: 8.42 µM
SK-MEL-5 melanoma
  GI50: 3.06 µM
  TGI: 11.8 µM
LOX IMVI melanoma
  GI50: 1.92 µM
  TGI: 5.38 µM
PC-3 prostate
  GI50: 2.96 µM
  TGI: 15.1 µM
MCF7 breast
  GI50: 2.14 µM
  TGI: 10.7 µM
SK-OV-3 ovarian
  GI50: 2.5 µM
  TGI: 10.3 µM
HCT-116 colon
  GI50: 2.94 µM
  TGI: 12.9 µM
HCT-15 colon
  GI50: 2.94 µM
  TGI: 14.5 µM
UACC-62 melanoma
  GI50: 2.08 µM
  TGI: 5.5 µM
HT29 colon
  GI50: 2.25 µM
  TGI: 6.04 µM
OVCAR-8 ovarian
  GI50: 2.83 µM
  TGI: 10.7 µM
NCI-H522 lung
  GI50: 1.63 µM
  TGI: 6.33 µM
A549 NSCLC
  GI50: 2.27 µM
  TGI: 5.92 µM
M14 melanoma
  GI50: 2.58 µM
  TGI: 8.79 µM
NCI/ADR-RES ovarian
  GI50: 4.12 µM
  TGI: 57.3 µM
HL-60(TB) leukemia
  GI50: 2.53 µM
  TGI: 6.98 µM
RPMI-8226 leukemia
  GI50: 2.13 µM
  TGI: 6.21 µM
MDA-MB-231 breast
  GI50: 2.99 µM
  TGI: 12.7 µM
SNB-19 CNS
  GI50: 3.19 µM
  TGI: 14.3 µM
DU-145 prostate
  GI50: 3.8 µM
  TGI: 24.1 µM
TK-10 renal
  GI50: 3.05 µM
  TGI: 17.9 µM
MDA-MB-435
  GI50: 3.13 µM
  TGI: 13.2 µM
SN12C renal
  GI50: 2.27 µM
  TGI: 12 µM
UO-31 renal
  GI50: 1.82 µM
  TGI: 5.86 µM
ACHN renal
  GI50: 3.06 µM
  TGI: 11.6 µM
NCI-H23 lung
  GI50: 3.44 µM
  TGI: 20.4 µM
HS 578T breast
  GI50: 4.53 µM
  TGI: 34.1 µM
NCI-H460 lung
  GI50: 2.99 µM
  TGI: 11.1 µM
K-562 leukemia
  GI50: 2.53 µM
  TGI: 11.1 µM
SF-295 CNS
  GI50: 2.29 µM
  TGI: 6.44 µM
SW-620 colon
  GI50: 3.12 µM
  TGI: 15.5 µM
OVCAR-4 ovarian
  GI50: 3.27 µM
  TGI: 15.6 µM
A498 renal
  GI50: 2.02 µM
  TGI: 5.54 µM
RXF 393 renal
  GI50: 2.39 µM
  TGI: 7.55 µM
UACC-257 melanoma
  GI50: 2.82 µM
  TGI: 9.22 µM
SR leukemia
  GI50: 2.18 µM
  TGI: 7.43 µM
U251 CNS
  GI50: 3.18 µM
  TGI: 12 µM
